{
  "source": "patent US9849135B2",
  "about": "“USP14 inhibitors for treating or preventing viral infections” (priority 2013, dated 2017)",
  "key": {"LACV (LAC74-32813)": {"system": "LACV (LAC74-32813)", "type": "cell-based, La Crosse virus"}, "[1]": {"system": "yellow fever virus (YFV, 17D vaccine strain)", "type": "cell-based"}, "[2]": {"system": "DENV2 (New Guinea C strain)", "type": "cell-based, Dengue virus", "conditions": "100 μM IU1; preincubated cells"}, "WNV (WNO2-1956)": {"system": "WNV (WNO2-1956)", "type": "cell-based, West Nile virus"}, "CHIKV (LR2006-OPY1)": {"system": "CHIKV (LR2006-OPY1)", "type": "cell-based, Chikungunya virus"}, "DENV2": {"system": "DENV2", "type": "cell-based, Dengue virus"}},
  "note": "Like-named read-outs stand apart in the source and are kept apart here.",
  "data": [
    {"smiles": "Cc1cc(C(=O)CN2CCCC2)c(C)n1-c1ccc(F)cc1", "note": "[IU1, 1-(1-(4-fluorophenyl)-2,5-dimethyl-1H-pyrrol-3-yl)-2-(pyrrolidin-1-yl)ethanone]", "values": [
      {"measurement": "LACV replication reduction", "setting": "LACV (LAC74-32813)", "value": 3, "unit": "fold"},
      {"measurement": "YFV titer reduction", "setting": "[1]", "value": "3-5 fold"},
      {"measurement": "plaques in plaque assay", "setting": "[2]", "value": "No plaques were observed"},
      {"measurement": "WNV titer reduction", "setting": "WNV (WNO2-1956)", "value": "3-5 fold"},
      {"measurement": "WNV titer versus without the drug", "setting": "WNV (WNO2-1956)", "value": "significantly higher"},
      {"measurement": "plaques in plaque assay (WNV)", "setting": "WNV (WNO2-1956)", "value": "no plaques were observed"},
      {"measurement": "effect on CHIKV replication", "setting": "CHIKV (LR2006-OPY1)", "value": "negligible or non-existent"},
      {"measurement": "titer, % of maximum", "setting": "DENV2; 75 μM IU1, post-infection addition", "value": 37, "unit": "%"},
      {"measurement": "titer, % of maximum", "setting": "DENV2; 100 μM IU1, post-infection addition", "value": 0.5, "unit": "%"}
    ]}
  ]
}
